{
  "source": "patent US20080311168A1",
  "about": "“PROCESS FOR COMBATING ACARIDS” (RHODIA CHIMIE, priority 2002, published 2008)",
  "key": {"[1]": {"tested_on": "dust mites (dermatophagoides pteronyssinus)", "assay": "Regulation of a dust mite population by powders (derived from AFNOR NF G 39-011), Example 12", "type": "in vivo", "details": "for Number of living acarids after 6 weeks, Mean: 5 g test powder + 5 g nutrient medium (food 1/NF G 39-011), 50 acarids placed, 4 repetitions; for CP (coefficient of regulation of the population of acarids), Mean: 6 weeks, versus sample without additive, 5 g test powder + 5 g nutrient medium, 0 = ineffective, 100 = eradication", "protocol": "This characterization is carried out by a laboratory registered by the French Ministry of Agriculture, Fisheries and Food. The object is to evaluate the effectiveness of PA powders, to which ZnS may or may not have been added, on the regulation of the change in a population of dust mites (dermatophagoides pteronyssinus). Monitoring is carried out over two development cycles of the acarids, i.e. 6 weeks.\nThe acarids used originate from a laboratory strain raised on a substrate composed of a 50/50 (w/w) mixture of wheatgerm and of brewers yeast as specks graded by sieving (fragments of less than 1 mm). The temperature is between 23 and 25° C. and the relative humidity is maintained at 75% by the presence of a saturated ammonium sulphate solution. The screen is kept in darkness.\nThe screen is supplied by the Laboratoire des Insectes et Acariens des Denrees [Laboratory of the Insects and Acarids of Foodstuff] of the Institut National de Recherches Agronomiques (INRA) [National Institute of Agronomic Research] at Bordeaux, according to the AFNOR standard NF G 39-011.\nThe method is derived directly from the AFNOR standard NF G 39-011, with the following variations: • the experimental unit is composed of a chamber with a diameter of 8 cm which is escapeproof with regard to acarids but which allows ventilation and in which are found: • 5 g of nutrient medium (food 1/NF G 39-011 appendix) • 5 g of test powder, carpeting the bottom of the chamber • the study is carried out by placing 50 acarids in these devices • 4 repetitions are carried out on the same day per experimental factor, including for the control batches composed of the same device but without the addition of the powder. The result is expressed in the form of a mean and standard deviation with regard to these 4 samples.\nThe monitoring consists in counting the number of living acarids after the time period of 6 weeks. As direct counting is rendered impossible by the structure of the substrate, extraction by heat according to the recommendations of the AFNOR standard NF G 39-011 is used.\nThe criterion of effectiveness of an additive is then defined as the coefficient of regulation of the population of acarids (CP), i.e.:\nThe population counts are all carried out at 6 weeks."}, "dust mites [2]": {"tested_on": "dust mites", "assay": "Curative test: ZnS powder deposited on fitted carpet holding an existing acarid population, Example 14", "type": "in vivo, dermatophagoides pteronyssinus", "protocol": "(§1) The object of this study is to evaluate the effectiveness of a powder intended to be applied to floor coverings in a curative and/or preventive treatment for combating populations of dust mites.\n(§2) This characterization is carried out in the same laboratory which carried out the test of Example 12. The source of the acarids is identical.\n(§3) The test comprises two parts: • a curative test by deposition of the product on an existing population of acarids, • a preventive test with deposition of acarids on surfaces of fitted carpets treated beforehand with the product.\n(§4) Monitoring is carried out over a period of at least two cycles, i.e. 6 weeks, and in comparison with a population not subjected to the product.\n(§5) The experimental method is derived from the experimental context of the AFNOR standard NF G 39-011.\n(§6) The experimental unit is composed of a chamber with a diameter of 8 cm which is escapeproof with regard to the acarids but which allows ventilation and in which are found: • a piece of short-pile polyamide fitted carpet as floor • 5 g of nutrient medium (dust+skin scales) • the corresponding dose of the test powder.\n• approximately 50 active acarids are placed on the fitted carpets • the test product is mixed with the food and sprinkled with a salt cellar over the fitted carpet containing the acarids • 4 repetitions are carried out on the same day as experimental factor, including for the control batches composed of the same device but without the product • the product is applied at a rate of 160 mg/m^2 • 2 counts of the populations of acarids are carried out after incubating for 4 and 6 weeks under optimum development conditions.\n(§7) • the product is mixed with the food and sprinkled with a salt cellar over pieces of acarid-free fitted carpets • one month later, approximately 50 active acarids are placed on the treated fitted carpets • 4 repetitions are carried out as experimental factor, including for the control batches composed of the same device but without the product (same control as for the curative test) • the product is applied at the rate of 10, 40, 80 and 160 mg/m^2 • counting of the population of acarids is carried out after incubating for 6 weeks under optimum development conditions. The monitorings consist in counting the number of living acarids after the time period of 4 or 6 weeks of incubation. The method of counting the acarids and the calculation of the coefficient of regulation of the population of acarids (CP) are identical to Example 12.\n(§8) The population counts on controlled and treated are all carried out at the same number of weeks."}, "dust mites [3]": {"tested_on": "dust mites", "assay": "Preventive test: acarids deposited on fitted carpet treated beforehand with ZnS powder, Example 14", "type": "in vivo, dermatophagoides pteronyssinus", "protocol": "as §1, §2, §3, §4, §5, §6, §7, §8"}},
  "data": [
    {"smiles": "[S-2].[Zn+2]", "note": "[ZnS 2, ZnS]", "values": [
      {"measurement": "Number of living acarids after 6 weeks, Mean", "setting": "[1]", "result": 305},
      {"measurement": "CP (coefficient of regulation of the population of acarids), Mean", "setting": "[1]", "result": 65}
    ]},
    {"smiles": "[S-2].[Zn+2]", "note": "[ZnS 1, ZnS]", "values": [
      {"measurement": "Number of living acarids after 6 weeks, Mean", "setting": "[1]", "result": 318},
      {"measurement": "CP (coefficient of regulation of the population of acarids), Mean", "setting": "[1]", "result": 63},
      {"measurement": "Number of living acarids after 4 weeks, Mean", "setting": "dust mites [2]; 160 mg/m^2, 4 weeks incubation", "result": 148},
      {"measurement": "CP 4 weeks, Mean", "setting": "dust mites [2]; 160 mg/m^2, 4 weeks, versus untreated carpet", "result": 42},
      {"measurement": "Number of living acarids after 6 weeks, Mean", "setting": "dust mites [2]; 160 mg/m^2, 6 weeks incubation", "result": 284},
      {"measurement": "CP 6 weeks, Mean", "setting": "dust mites [2]; 160 mg/m^2, 6 weeks, versus untreated carpet", "result": 69},
      {"measurement": "CP 4 weeks, Mean", "setting": "dust mites [3]; 10 mg/m^2, 4 weeks", "result": 6},
      {"measurement": "CP 6 weeks, Mean", "setting": "dust mites [3]; 10 mg/m^2, 6 weeks", "result": 6},
      {"measurement": "Number of living acarids after 6 weeks, Mean", "setting": "dust mites [3]; 10 mg/m^2, 6 weeks", "result": 849},
      {"measurement": "Number of living acarids after 4 weeks, Mean", "setting": "dust mites [3]; 10 mg/m^2, acarids placed one month after treatment, 4 weeks", "result": 242},
      {"measurement": "CP 4 weeks, Mean", "setting": "dust mites [3]; 40 mg/m^2, 4 weeks", "result": 40},
      {"measurement": "Number of living acarids after 4 weeks, Mean", "setting": "dust mites [3]; 40 mg/m^2, 4 weeks", "result": 154},
      {"measurement": "CP 6 weeks, Mean", "setting": "dust mites [3]; 40 mg/m^2, 6 weeks", "result": 60},
      {"measurement": "Number of living acarids after 6 weeks, Mean", "setting": "dust mites [3]; 40 mg/m^2, 6 weeks", "result": 361},
      {"measurement": "CP 4 weeks, Mean", "setting": "dust mites [3]; 80 mg/m^2, 4 weeks", "result": 45},
      {"measurement": "Number of living acarids after 4 weeks, Mean", "setting": "dust mites [3]; 80 mg/m^2, 4 weeks", "result": 142},
      {"measurement": "CP 6 weeks, Mean", "setting": "dust mites [3]; 80 mg/m^2, 6 weeks", "result": 65},
      {"measurement": "Number of living acarids after 6 weeks, Mean", "setting": "dust mites [3]; 80 mg/m^2, 6 weeks", "result": 315},
      {"measurement": "CP 4 weeks, Mean", "setting": "dust mites [3]; 160 mg/m^2, 4 weeks", "result": 52},
      {"measurement": "Number of living acarids after 4 weeks, Mean", "setting": "dust mites [3]; 160 mg/m^2, 4 weeks", "result": 123},
      {"measurement": "CP 6 weeks, Mean", "setting": "dust mites [3]; 160 mg/m^2, 6 weeks", "result": 68},
      {"measurement": "Number of living acarids after 6 weeks, Mean", "setting": "dust mites [3]; 160 mg/m^2, 6 weeks", "result": 290}
    ]}
  ]
}
